Earlier results as cited in patent publication US20120213707A1, “Riboflavin Based Aerosol and Use as Placebo in Trials” (MPEX PHARMACEUTICALS, INC., priority 2009, published 2012).

System: men and women with a history of recurrent migraine headaches
Conditions: cited from earlier work

Q: Which results are given for `Cc1cc2nc3c(=O)[nH]c(=O)nc-3n(C[C@H](O)[C@H](O)[C@H](O)CO)c2cc1C` [riboflavin]?
A: median migraine attack frequency (400 mg of riboflavin daily for three months, 23 patients, Boehnke 2004): reduction in median migraine attack frequency; migraine attack frequency and number of headache days versus placebo (400 mg of riboflavin/day for three months, 54 men and women, Schoenen 1998): significantly better than placebo; clinical outcome in migraine (high-dose riboflavin, Sandor 2000): clinical improvement
